These results are taken from US8013156B2 (Exelixis, Inc., priority 2003, dated 2011).

The structures appear in SMILES notation. Where only a bound is given, the exact number is not on record here.

Tie-2, sequence (Q02763 23-1124): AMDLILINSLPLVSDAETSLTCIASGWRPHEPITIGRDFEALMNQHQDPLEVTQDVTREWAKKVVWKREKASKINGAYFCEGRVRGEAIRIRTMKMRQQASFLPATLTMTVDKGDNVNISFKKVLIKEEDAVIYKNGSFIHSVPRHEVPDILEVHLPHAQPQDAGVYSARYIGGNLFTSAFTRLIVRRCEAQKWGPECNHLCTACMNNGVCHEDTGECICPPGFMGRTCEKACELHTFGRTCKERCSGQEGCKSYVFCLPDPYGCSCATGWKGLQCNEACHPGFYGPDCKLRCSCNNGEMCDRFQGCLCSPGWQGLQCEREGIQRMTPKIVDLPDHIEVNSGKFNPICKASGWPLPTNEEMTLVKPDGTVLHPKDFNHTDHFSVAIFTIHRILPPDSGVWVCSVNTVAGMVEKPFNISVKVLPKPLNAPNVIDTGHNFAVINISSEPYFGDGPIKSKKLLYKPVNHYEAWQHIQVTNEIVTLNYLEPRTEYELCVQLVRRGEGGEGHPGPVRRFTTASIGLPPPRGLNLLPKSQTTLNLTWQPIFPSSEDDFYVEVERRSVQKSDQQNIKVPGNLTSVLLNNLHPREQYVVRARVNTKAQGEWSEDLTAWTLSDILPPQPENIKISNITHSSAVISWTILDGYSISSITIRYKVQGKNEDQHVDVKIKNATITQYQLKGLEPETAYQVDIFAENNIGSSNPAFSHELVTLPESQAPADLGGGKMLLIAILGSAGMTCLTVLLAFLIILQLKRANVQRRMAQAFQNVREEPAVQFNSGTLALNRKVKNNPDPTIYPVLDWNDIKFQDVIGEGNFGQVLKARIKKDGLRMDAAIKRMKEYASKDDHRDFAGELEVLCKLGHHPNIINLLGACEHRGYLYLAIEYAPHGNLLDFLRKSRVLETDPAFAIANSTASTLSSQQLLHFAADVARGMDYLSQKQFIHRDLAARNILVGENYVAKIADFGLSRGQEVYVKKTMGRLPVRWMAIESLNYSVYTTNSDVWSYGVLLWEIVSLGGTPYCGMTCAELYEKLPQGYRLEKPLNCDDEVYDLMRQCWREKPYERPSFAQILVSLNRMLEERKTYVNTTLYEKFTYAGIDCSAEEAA

In this experiment the target is Tie-2 (Homo sapiens, UniProt Q02763). Description: Tie-2 tyrosine kinase activity assay (luciferase/luciferin ATP consumption with pEY substrate, or 33P-ATP incorporation). Format: biochemical. The settings on record: human enzyme Tie-2. The method, boiled down:
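Values are IC50 categories (A <50 nM to D ≥10,000 nM), with Ki obtainable by fitting rates to a tight-binding model. Assay formats: 33P-ATP phosphate transfer to adsorbed generic substrate counted by scintillation, or luciferase-detected ATP depletion using pEY.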
As a reminder, the IC50 is the concentration that gives 50% inhibition. A higher IC50 goes with a need for much substance. In turn, `O=C(Nc1cc(C(F)(F)F)cc(C(F)(F)F)c1)N1CCN(c2nsnc2NCc2ccncc2)CC1` [Example 44, N-[3,5-bis(trifluoromethyl)phenyl]-4-{4-[(pyridin-4-ylmethyl)amino]-1,2,5-thiadiazol-3-yl}piperazine-1-carboxamide] returned an IC50 of 1000 to 10000 nM.

`CCc1cc(Br)cc(NC(=O)N2CCN(c3nsnc3OCc3ccnc(N)n3)CC2)c1` [Example 238, 4-(4-{[(2-aminopyrimidin-4-yl)methyl]oxy}-1,2,5-thiadiazol-3-yl)-N-(3-bromo-5-ethylphenyl)piperazine-1-carboxamide] came in with a concentration for half-maximal inhibition (IC50) below 50 nM.

The molecule `CCc1cccc(NC(=O)N2CCN(c3nsnc3OCc3ccnc(NC(=O)CN4CCN(C)CC4)c3)CC2)c1` [Example 172, N-(3-ethylphenyl)-4-(4-{[(2-{[(4-methylpiperazin-1-yl)acetyl]amino}pyridin-4-yl)methyl]oxy}-1,2,5-thiadiazol-3-yl)piperazine-1-carboxamide] registered a concentration for half-maximal inhibition (IC50) below 50 nM. As for `CCc1cc(F)cc(NC(=O)N2CCN(c3ncccc3OCc3ccnc(N)n3)CC2)c1` [Example 247, 4-(3-{[(2-aminopyrimidin-4-yl)methyl]oxy}pyridin-2-yl)-N-(3-ethyl-5-fluorophenyl)piperazine-1-carboxamide], the figure is below 50 nM; as for `CCc1cc(CC)cc(NC(=O)N2CCN(c3ncccc3OCc3ccnc(N)n3)CC2)c1` [Example 189, 4-(3-{[(2-aminopyrimidin-4-yl)methyl]oxy}pyridin-2-yl)-N-(3,5-diethylphenyl)piperazine-1-carboxamide], below 50 nM. As for `O=C(Nc1cc(C(F)(F)F)cc(C(F)(F)F)c1)N1CCN(c2nsnc2OCc2ccnc(Nc3ccccc3)n2)CC1` [Example 118, N-[3,5-bis(trifluoromethyl)phenyl]-4-[4-({[2-(phenylamino)pyrimidin-4-yl]methyl}oxy)-1,2,5-thiadiazol-3-yl]piperazine-1-carboxamide], the figure is below 50 nM. With `CC(C)c1ccc(NC(=O)N2CCN(c3nsnc3OCc3ccncc3)CC2C)cc1` (centres unmarked) [Example 50, 2-methyl-N-[4-(1-methylethyl)phenyl]-4-{4-[(pyridin-4-ylmethyl)oxy]-1,2,5-thiadiazol-3-yl}piperazine-1-carboxamide] the figure was 1000 to 10000 nM; with `O=C(Nc1cc(C(F)(F)F)cc(C(F)(F)F)c1)N1CCN(c2ccccc2OCc2ccncc2)CC1` [Example 72, N-[3,5-bis(trifluoromethyl)phenyl]-4-{2-[(pyridin-4-ylmethyl)oxy]phenyl}piperazine-1-carboxamide], below 50 nM; with `COC(=O)Nc1nccc(COc2nsnc2N2CCN(C(=O)Nc3cc(C(F)(F)F)cc(C(F)(F)F)c3)CC2)n1` [Example 131, methyl {4-[({4-[4-({[3,5-bis(trifluoromethyl)phenyl]amino}carbonyl)piperazin-1-yl]-1,2,5-thiadiazol-3-yl}oxy)methyl]pyrimidin-2-yl}carbamate], below 50 nM. `COc1cc2nccc(COc3nsnc3N3CCN(C(=O)Nc4cc(C(F)(F)F)cc(C(F)(F)F)c4)CC3)c2cc1OC` [Example 273, 4-[4-({[6,7-bis(methyloxy)quinolin-4-yl]methyl}oxy)-1,2,5-thiadiazol-3-yl]-N-[3,5-bis(trifluoromethyl)phenyl]piperazine-1-carboxamide] had an IC50 below 50 nM.

On to `Nc1nccc(COc2ccccc2N2CCN(C(=O)Nc3cc(C(F)(F)F)cc(C(F)(F)F)c3)CC2)n1` [Example 255, 4-(2-{[(2-aminopyrimidin-4-yl)methyl]oxy}phenyl)-N-[3,5-bis(trifluoromethyl)phenyl]piperazine-1-carboxamide], for which the IC50 was below 50 nM. As for `COc1ccc(COc2nsnc2N2CCN(C(=O)Nc3cc(C(F)(F)F)cc(C(F)(F)F)c3)CC2)cc1` [Example 17], the figure is at least 10000 nM; as for `O=C(O)c1cc(COc2nsnc2N2CCN(C(=O)Nc3cc(C(F)(F)F)cc(C(F)(F)F)c3)CC2)ccn1` [Example 139, 4-[({4-[4-({[3,5-bis(trifluoromethyl)phenyl]amino}carbonyl)piperazin-1-yl]-1,2,5-thiadiazol-3-yl}oxy)methyl]pyridine-2-carboxylic acid], at least 10000 nM.

For the molecule `O=C(Nc1cccc(C(F)(F)F)c1)C1CCN(c2nsnc2OCc2ccncc2)CC1` [Example 37, 1-{4-[(pyridin-4-ylmethyl)oxy]-1,2,5-thiadiazol-3-yl}-N-[3-(trifluoromethyl)phenyl]piperidine-4-carboxamide], the IC50 was 50 to 1000 nM. In turn, `CCc1cccc(NC(=O)N2CCN(c3nc(Cl)ccc3OCc3ccnc(N)n3)CC2)c1` [Example 237, 4-(3-{[(2-aminopyrimidin-4-yl)methyl]oxy}-6-chloropyridin-2-yl)-N-(3-ethylphenyl)piperazine-1-carboxamide] registered an IC50 below 50 nM. With `CCc1ccc(F)c(NC(=O)N2CCN(c3ncccc3OCc3ccnc(NC(=O)CN4CCN(C)CC4)c3)CC2)c1` [Example 199, N-(5-ethyl-2-fluorophenyl)-4-(3-{[(2-{[(4-methylpiperazin-1-yl)acetyl]amino}pyridin-4-yl)methyl]oxy}pyridin-2-yl)piperazine-1-carboxamide], the IC50 is below 50 nM. As to `Nc1nccc(COc2nccnc2N2CCN(C(=O)Nc3cc(F)cc(C(F)(F)F)c3)CC2)n1` [Example 218, 4-(3-{[(2-aminopyrimidin-4-yl)methyl]oxy}pyrazin-2-yl)-N-[3-fluoro-5-(trifluoromethyl)phenyl]piperazine-1-carboxamide], the IC50 was below 50 nM. With `CC1CN(c2nsnc2OCc2ccncc2)CCN1C(=O)Nc1cc(C(F)(F)F)cc(C(F)(F)F)c1` (centres unmarked) [Example 22] the figure was 50 to 1000 nM. As for `Nc1nccc(COc2nsnc2N2CCN(C(=O)Nc3cccc(OC(F)(F)F)c3)CC2)n1` [Example 258, 4-(4-{[(2-aminopyrimidin-4-yl)methyl]oxy}-1,2,5-thiadiazol-3-yl)-N-{3-[(trifluoromethyl)oxy]phenyl}piperazine-1-carboxamide], the figure is below 50 nM; as for `Nc1nccc(COc2nsnc2N2CCN(C(=O)Nc3cccc(C(F)(F)F)c3)CC2)n1` [Example 231, 4-(4-{[(2-aminopyrimidin-4-yl)methyl]oxy}-1,2,5-thiadiazol-3-yl)-N-[3-(trifluoromethyl)phenyl]piperazine-1-carboxamide], below 50 nM; as for `Nc1cc(COc2nsnc2N2CCN(C(=O)Nc3cc(C(F)(F)F)cc(C(F)(F)F)c3)CC2)ccn1` [Example 99, 4-(4-{[(2-aminopyridin-4-yl)methyl]oxy}-1,2,5-thiadiazol-3-yl)-N-[3,5-bis(trifluoromethyl)phenyl]piperazine-1-carboxamide], below 50 nM. As for `O=C(Cc1cc(C(F)(F)F)ccc1C(F)(F)F)NC1CCN(c2nsnc2OCc2ccncc2)C1` (centres unmarked) [Example 60, 2-[2,5-bis(trifluoromethyl)phenyl]-N-(1-{4-[(pyridin-4-ylmethyl)oxy]-1,2,5-thiadiazol-3-yl}pyrrolidin-3-yl)acetamide], the figure is 50 to 1000 nM. Molecule `CN(C(=O)N1CCN(c2ncccc2OCc2ccnc(N)n2)CC1)c1cc(C(F)(F)F)cc(C(F)(F)F)c1` [Example 250, 4-(3-{[(2-aminopyrimidin-4-yl)methyl]oxy}pyridin-2-yl)-N-[3,5-bis(trifluoromethyl)phenyl]-N-methylpiperazine-1-carboxamide] showed a concentration for half-maximal inhibition (IC50) below 50 nM.
